Results reported in US10829506B2, “Amino- or ammonium-containing sulfonic acid, phosphonic acid and carboxylic acid derivatives and their medical use” (GRI Bio, Inc., priority 2011, dated 2020).
pIC50: −log10 of the molar value.

Key:
phospho-Akt Ser473 = assay: Inhibition of Akt phosphorylation on Ser473 in IgE sensitized, antigen stimulated RBL-2H3 cells; type: cell-based, rat; settings: normalized to total Akt, IgE and antigen for 15 min
Text: The mast cell degranulation assay using the RBL-2H3 cell line (see Example 27) was also used to determine the status of the PI3K/Akt axis. Activation of PI3K leads to production of PIP3 on the cytosolic side of the lipid bilayer. Akt is recruited to the PIP3 domain and subsequently activated by phosphorylation on residues Ser473 and Thr308. (Franke et al., Cell 81:727-736, (1995)). Once recruited to the membrane, it is phosphorylated and activated by other kinases (Hemmings, Science 275:628-630 (1997); Hemmings. Science 276:534 (1997); Downward, Science 279:673-674 (1998); Alessi et al., EMBO J. 15:6541-6551 (1996)). Western blotting of the phosphorylated Ser473 residue on Akt (phospho-Akt Ser473) is widely used to assess the level of activation of the PI3K/Akt axis.
All buffers and solutions used for the phosphor-Akt Ser473 assay were from Meso Scale Discovery. Tris Lysis Buffer consisted of 150 mM NaCl, 20 mM Tris, pH 7.5, 1 mM EDTA, 1 mM EGTA and 1% Triton-X-100. Complete Tris Lysis Buffer was prepared prior to use by addition of protease inhibitor, phosphatase inhibitors and PMSF. The 10x Tris Wash Buffer consisted of 500 mM Tris, pH 7.5, 1.5 M NaCl and 0.2% Tween-20. Blocker A was made up of bovine serum albumin in Tris Wash Buffer. Read Buffer T was used according to manufacturer's instructions. The Whole Cell Lysate Kits used were phospho-Akt Ser473 (K11100D. Lot K0011749) and total ERK½ (K11107D, Lot K0011698) as a loading control.
Protein assay: protein concentration was determined using the BCA (bicinchoninic acid) Protein Assay kit according to the manufacturer's instructions, Briefly, duplicate 10 μl samples of bovine serum albumin (BSA) standards, blank and lysates were incubated in a 96-well plate with 0.2 ml working reagent for 30 min at 37° C. Plates cooled to room temperature for 5 min and absorbance at 562 nm measured in a multi-mode plate reader. Protein concentrations were calculated using FlexStation 3 software (SoftMax Pro version 5.3). Protein concentration of lysates was determined from a standard curve (BSA) using a linear curve fit.
Phosphoprotein assay: protein phosphorylation was determined using the MULTI-SPOT® Assay System (Meso Scale Discovery), providing simultaneous detection of phosphorylated and total proteins. Briefly, capture antibodies against phosphorylated and total protein are patterned on distinct spots in the same well of 96-well plates. Sandwich immunoassay and electrochemiluminescence detection technology are combined to measure intensity of the emitted light from phosphorylated and total protein spots. For analysis of phosphor-Akt Ser473 was performed according to the manufacturer's instructions. The optimal amount of protein was determined at 5 μg lysate per well for ERK½ and 10 μg/well for phospho-Akt Ser473. Plates were blocked with 25 μl/well Blocker A for 1 h at room temperature with gentle agitation. During this time, the lysates were thawed and diluted to the desired protein concentration in complete Tris Lysis Buffer. Plates were washed four times in Tris Wash Buffer and 25 μl lysate per well added. Plates were incubated for 1-3 h at room temperature with agitation according to the manufacturer's recommendations. Plates were washed four times with Tris Wash Buffer, followed by addition of 25 μl/well of the respective detection antibody and incubation for 1 h at room temperature, with agitation. After a final four washes with Tris Wash Buffer 150 μl/well, Read Buffer T was added, and plates read on a SECTOR Imager 6000 plate reader.
The mean background signal from each plate was subtracted from averaged raw data. The amount of total protein phosphorylaled was expressed as % phosphoprotein according to the manufacturer's (Meso Scale Discovery) Instructions.
Levels of phospho-Akt Ser473 were determined in IgE sensitized and antigen stimulated cells after treatment without (positive control) or with 1, 5 and 25 μM test compound and normalized to levels of total Akt.

RBL-2H3 cells [1] = assay: Maximum tolerated concentration (cytotoxicity by lactate dehydrogenase release); type: cell-based, rat
Text: A commercially available cytotoxicity test was used (Promega Cytotox-One cat. #67891).
The safety index (SI) of a test compound Is the ratio between the maximum tolerated concentration and the 1C50 and is used as a measure of the relative safety of the test compound.

RBL-2H3 cells [2] = assay: Inhibition of mast cell degranulation (β-hexosaminidase release); type: cell-based, rat; settings: RBL-2H3 cells sensitized with anti-DNP IgE, triggered with DNP-HSA, 1 h preincubation
Text: Mast cells are key effector cells involved in allergic and inflammatory diseases, and the Rat Basophilic Leukemia clone 2H3 (RBL-2H3) cell line is a commonly used model of allergen dependent immune modulator release (degranulation) in mast cells. On their surface, they express the high affinity receptor for IgE (FcεRI). Upon binding of antigen-specific IgE to the receptor, cells become sensitized to the IgE specific antigen (allergen). When IgE-sensitized cells then encounter multivalent antigen, the antigen clusters IgE-FcεRI complexes and initiates a signal transduction cascade that leads to degranulation, that is, the release of inflammatory mediators, such as cytokines, eicosanoids, histamine and enzymes. The assay can be used as a screening method to identify immune-modulating compounds, in particular compounds useful in the medical management of allergic and inflammatory diseases and asthma, β-hexosaminidase was previously shown to be released with the same kinetics as histamine (Schwartz et al., J Immunology; 123:1445-1450 (1979)), thus offering a simple means to monitor degranulation. The RBL-2H3 cell line has been successfully used to identify compounds with anti-allergic activity (Choo et al. Planta Med., 69:518-522 (2003)).
Cell Culture: RBL-2H3 cells obtained from the German Collection of Microorganisms and Cell Cultures (ACC312) (Braunschweig, Germany) were maintained in 70% Minimum Essential Medium with Earle's Salts, 20% RPMI 1640 Medium, 10% FBS and 2 mM l-glutamine in 95% air/5% CO2 at 37° C. and routinely checked for mycoplasma contamination. Cells were passaged every 3-4 days; after washing cells once with 35 ml PBS cells were incubated 8 min with 5 ml 0.05% Trypsin-EDTA solution at 37° C. Cells were removed from the incubator, 15 ml culture medium was added and cells were resuspended by repeated pipetting.
Cell seeding: cells were harvested with Trypsin-EDTA as described and 50-100 μl cell suspension seeded Into Costar CellBind 24 well cluster plates (no. 3337). Plates were kept for 30 min at RT under the sterile hood before being transferred to the incubator. Cells were used within one or two days after seeding.
For sensitization, cells for immediate use were sensitized 6-12 h after plating; cells to be used the following day were sensitized 26-38 h after plating. Culture plates were removed from the incubator and checked for cell growth and contamination. The medium was discarded and cells were sensitized with anti-DNP IgE (0.4 μg/ml) in 0.4 ml culture medium overnight. Following overnight sensitization, cells were washed with 0.8 ml pre-warmed TyB and 0.38 ml test compound or vehicle control (supplemented or not with 1% FBS) were added to duplicate wells. Samples were adjusted to contain 1% vehicle for test compounds dissolved in organic solvents. Cells were incubated for 1 h at 37° C. At the end of the incubation period, cells were routinely stimulated with 20 μl DNP-HSA (2 μg/ml; final concentration 0.1 μg/ml) diluted in TyB and cells were incubated for 15 min at 37° C. Alternatively, cells were stimulated with 20 μl […] (final concentration 0.25 μM) or 20 nM […] (final concentration 0.25 μM), both in the absence or presence of 20 nM PMA (final concentration).
Plates were removed from the incubator and immediately centrifuged at 4° C. for 5 min at 250×g and transferred to an ice bath. Aliquots of supernatants, 25 μl, were transferred to 96-well plates. Remaining supernatant was aspirated from control wells and cells were lysed in […] lysis buffer for 5 min at RT on an orbital shaker at 450 rpm under non-sterile conditions. After lysis, 25 μl aliquots of lysates were transferred to 96-well plates.
MUG substrate solution, 100 μl, were added to supernatant and lysate samples and plates were incubated 30 min at 37° C. The reaction was terminated by addition of 150 μl stop solution. Fluorescence was measured at 365 nm excitation and 440 nm emission wavelengths. […]

BALB/cJW mice = assay: Delayed-type hypersensitivity (DTH) reaction, mouse ear swelling; type: in vivo; settings: oral; 1a 100 mg/kg (loading dose, then maintenance doses), dexamethasone 1.0 mg/kg once daily; 24 h after ovalbumin challenge
Description: The anti-inflammatory and anti-allergic effects of compound 1a was assessed in a mouse model of skin delayed-type hypersensitivity (DTH) reactions and compared to a vehicle control and to the reference drug dexamethasone. DTH reactions are antigen-specific cell-mediated immune responses, driven primarily by T helper type 1 (Th1) cells, similar to the tuberculin immunization response. The immune reaction induced by an ovalbumin challenge to animals previously sensitized with ovalbumin in Complete Freund's Adjuvant, is characterized by swelling (edema) at the site of challenge, e.g. the mouse ear. Dexamethasone, an anti-inflammatory steroid, reduces cell-mediated immune responses and was employed to validate the responsiveness of the assay to pharmacological treatment.
Female BALB/cJW mice were bred at the University of Lodz, Lodz, Poland and housed in groups of 8 in makrolon cages with a 12 h light-dark cycle. Mice were given free access to food (Agropol S. j., Motycz, Poland) and water.
Group size was n=8 mice unless otherwise stated. Test compound was freshly prepared before administration.
Sensitization: The protein antigen, ovalbumin, was reconstituted in PBS at 4 mg/ml. […] The emulsion was tested by putting a drop of emulsion onto PBS; if the emulsion remained as a light droplet on the PBS, the emulsion was deemed ready. […]
Challenge: On the sixth day after sensitization, DTH was elicited by challenging animals subcutaneously (gauge 30 needle, B. Braun Melsungen, Melsungen, Germany) in the left ears with 10 μL of a 1% suspension of heat-aggregated ovalbumin (HOVA) (100 μg ovalbumin per mouse). […] Ear thickness was measured with a precise spring-loaded caliper (Art. No, 7309, Mltutoyo, Kawasaki, Japan) before challenge, and 24 h after challenge. […]
To account for individual variability, the increase in right ear thickness, before and 24 h after administration of PBS, was subtracted from the HOVA-induced increase in left ear thickness. The increase in ear thickness was calculated by the difference between ear thickness before and 24 h after antigen challenge. […]

[3] = Body weight and toxic side-effects in the DTH study; type: in vivo, mice; settings: oral 1 mg/kg once daily
Description: Three hours after the last dose, the antigen challenge was performed on the ears as described above. Dexamethasone was given at 1 mg/kg orally by gavage 3 h before sensitization and once daily with the final dose given 3 h prior to antigen challenge (a total of 7 administrations). All administrations were given in a volume of 10 mL/kg.
Such high dosing (overdose) is, however, not suitable for treatment of humans due to severe side effects of the corticosteroid and was only used to validate the responsiveness of the model.

CCCCCCCCCCCCCC[N+](C)(C)CCCP(=O)([O-])O [Compound 1c, 3-N,N-Dimethylmyristylammoniopropylphosphonic Acid]
Level of phospho-Akt Ser473 (phospho-Akt Ser473; 1 μM): 83.2 ± 17.3 % positive control | Level of phospho-Akt Ser473 (phospho-Akt Ser473; 5 μM): 11.7 ± 7.7 % positive control | Level of phospho-Akt Ser473 (phospho-Akt Ser473; 25 μM): 2.2 ± 1.4 % positive control | MTC (maximum tolerated concentration) (RBL-2H3 cells [1]; highest concentration not causing cytotoxicity, LDH release): 200 µM | SI (safety index, ratio MTC/IC50) (RBL-2H3 cells [1]; ratio between maximum tolerated concentration and IC50): 71.4 | pIC50 (RBL-2H3 cells [2]): 5.55

C[C@@H]1C[C@H]2[C@@H]3CCC4=CC(=O)C=C[C@]4(C)[C@@]3(F)[C@@H](O)C[C@]2(C)[C@@]1(O)C(=O)CO [Dexamethasone, reference compound]
Inhibition of mouse ear swelling (DTH response) (BALB/cJW mice): 49% | Loss in body weight [3]: 4.4%
